In patent publication US20230093099A1, “COMPOUNDS AND METHODS OF TREATING CANCERS” (CULLGEN (SHANGHAI), INC., priority 2019, published 2023) one finds IC50 data, which are given here for 18 molecules.

The first assay relates to RS4;11 cells. The experiment in a line: Cell viability assay (CellTiter-Glo) in RS4;11 cells. The note with it: Homo sapiens, 72 h; RS4;11 ALL cells treated for three days; read-out: cell viability inhibition IC50. Type of assay: cell-based. The procedure, abridged: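 RS4;11 cells seeded at 5000 per well, exposed for 3 days to 8- or 12-point 3-fold serial dilutions. Viability read by CellTiter-Glo luminescence; IC50 fitted by nonlinear least-squares regression.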
On the technique in general: Cellular ATP, detected with luciferase, serves as a proxy for viable cell number.
What is called IC50 is the point on the concentration scale where inhibition reaches its midpoint. As for `Cc1cnc(Nc2ccc(N3CCN(C(=O)CCCCCCCNc4ccc5c(c4)C(=O)N(C4CCC(=O)NC4=O)C5=O)CC3)cc2)nc1Nc1cccc(S(=O)(=O)NC(C)(C)C)c1` (centres unmarked) [JA-231, N-(tert-butyl)-3-((2-((4-(4-(8-((2-(2,6-dioxopiperidin-3-yl)-1,3-dioxoisoindolin-5-yl)amino)octanoyl)piperazin-1-yl)phenyl)amino)-5-methylpyrimidin-4-yl)amino)benzenesulfonamide], the IC50 is less than 100 nM. `CS(=O)(=O)c1ccc(-c2cccc3nc(Nc4ccc(N5CCN(C(=O)CCCCCNc6ccc7c(c6)C(=O)N(C6CCC(=O)NC6=O)C7=O)CC5)cc4)nn23)cc1` (centres unmarked) [JA-198, 2-(2,6-dioxopiperidin-3-yl)-5-((6-(4-(4-((5-(4-(methylsulfonyl)phenyl)-[1,2,4]triazolo[1,5-a]pyridin-2-yl)amino)phenyl)piperazin-1-yl)-6-oxohexyl)amino)isoindoline-1,3-dione]: the IC50 was less than 100 nM.

Still in this assay, the particulars now being: Homo sapiens, 72 h; RS4;11 cells; cell viability, 3 days, CellTiter-Glo; read-out: IC50.
On to `CS(=O)(=O)c1ccc(-c2cccc3nc(Nc4ccc(N5CCN(C(=O)CCCCCOc6ccc7c(c6)C(=O)N(C6CCC(=O)NC6=O)C7)CC5)cc4)nn23)cc1` (centres unmarked) [JA-277, 3-(6-((6-(4-(4-((5-(4-(Methylsulfonyl)phenyl)-[1,2,4]triazolo[1,5-a]pyridin-2-yl)amino)phenyl)piperazin-1-yl)-6-oxohexyl)oxy)-1-oxoisoindolin-2-yl)piperidine-2,6-dione], for which the IC50 was determined as 447 nM.

As for `Cc1ncsc1-c1ccc(CNC(=O)[C@@H]2C[C@@H](O)CN2C(=O)[C@@H](NC(=O)COCCOCCNC(=O)CN2CCN(c3ccc(Nc4nc5cccc(-c6ccc(S(C)(=O)=O)cc6)n5n4)cc3)CC2)C(C)(C)C)cc1` [JA-134, (2S,4R)-1-((S)-2-(tert-Butyl)-14-(4-(4-((5-(4-(methylsulfonyl)phenyl)-[1,2,4]triazolo[1,5-a]pyridin-2-yl)amino)phenyl)piperazin-1-yl)-4,13-dioxo-6,9-dioxa-3,12-diazatetradecanoyl)-4-hydroxy-N-(4-(4-methylthiazol-5-yl)benzyl)pyrrolidine-2-carboxamide], the IC50 is 4310 nM. Consider `Cn1c(=O)n(C2CCC(=O)NC2=O)c2ccc(NCCCCCCC(=O)N3CCN(c4ccc(Nc5nc6cccc(-c7ccc(S(C)(=O)=O)cc7)n6n5)cc4)CC3)cc21` (centres unmarked) [JA-293, 3-(3-Methyl-5-((7-(4-(4-((5-(4-(methylsulfonyl)phenyl)-[1,2,4]triazolo[1,5-a]pyridin-2-yl)amino)phenyl)piperazin-1-yl)-7-oxoheptyl)amino)-2-oxo-2,3-dihydro-1H-benzo[d]imidazol-1-yl)piperidine-2,6-dione], for which the IC50 was more than 500 nM. As to `Cc1cnc(Nc2ccc(N3CCN(C(=O)CCCCCCCNc4ccc5c(c4)C(=O)N(C4CCC(=O)NC4=O)C5=O)CC3)cc2)nc1Nc1cccc(S(=O)(=O)NC(C)(C)C)c1` (centres unmarked) [JA-231, N-(tert-butyl)-3-((2-((4-(4-(8-((2-(2,6-dioxopiperidin-3-yl)-1,3-dioxoisoindolin-5-yl)amino)octanoyl)piperazin-1-yl)phenyl)amino)-5-methylpyrimidin-4-yl)amino)benzenesulfonamide], the IC50 is 80.2 nM. Turning to `Cc1cnc(Nc2ccc(N3CCN(C(=O)CCOCCOCCOCCOCCNc4cccc5c4C(=O)N(C4CCC(=O)NC4=O)C5=O)CC3)cc2)nc1Nc1cccc(S(=O)(=O)NC(C)(C)C)c1` (centres unmarked) [JA-020, N-(tert-Butyl)-3-((2-((4-(4-(1-((2-(2,6-dioxopiperidin-3-yl)-1,3-dioxoisoindolin-4-yl)amino)-3,6,9,12-tetraoxapentadecan-15-oyl)piperazin-1-yl)phenyl)amino)-5-methylpyrimidin-4-yl)amino)benzenesulfonamide], the IC50 stood at 633 nM.

Consider `Cc1cnc(Nc2ccc(N3CCN(C(=O)CCCCCNc4cccc5c4C(=O)N(C4CCC(=O)NC4=O)C5=O)CC3)cc2)nc1Nc1cccc(S(=O)(=O)NC(C)(C)C)c1` (centres unmarked) [JA-007, N-(tert-Butyl)-3-((2-((4-(4-(6-((2-(2,6-dioxopiperidin-3-yl)-1,3-dioxoisoindolin-4-yl)amino)hexanoyl)piperazin-1-yl)phenyl)amino)-5-methylpyrimidin-4-yl)amino)benzenesulfonamide], for which the IC50 is more than 10000 nM. In the case of `CS(=O)(=O)c1ccc(-c2cccc3nc(Nc4ccc(N5CCN(CC(=O)NCCCCNc6cccc7c6C(=O)N(C6CCC(=O)NC6=O)C7=O)CC5)cc4)nn23)cc1` (centres unmarked) [JA-109, N-(4-((2-(2,6-Dioxopiperidin-3-yl)-1,3-dioxoisoindolin-4-yl)amino)butyl)-2-(4-(4-((5-(4-(methylsulfonyl)phenyl)-[1,2,4]triazolo[1,5-a]pyridin-2-yl)amino)phenyl)piperazin-1-yl)acetamide], the IC50 is more than 10000 nM. Consider `CS(=O)(=O)c1ccc(-c2cccc3nc(Nc4ccc(N5CCN(C(=O)CCCCCNc6ccc7c(c6)C(=O)N(C6CCC(=O)NC6=O)C7=O)CC5)cc4)nn23)cc1` (centres unmarked) [JA-198, 2-(2,6-dioxopiperidin-3-yl)-5-((6-(4-(4-((5-(4-(methylsulfonyl)phenyl)-[1,2,4]triazolo[1,5-a]pyridin-2-yl)amino)phenyl)piperazin-1-yl)-6-oxohexyl)amino)isoindoline-1,3-dione], for which the IC50 was 7.3 nM. In the case of `O=C1CCC(N2C(=O)c3ccc(NCCCCCCN4CCC(n5cc(-c6cnc7cccc(-c8cc(F)c(CN9CCOCC9)c(F)c8)c7n6)cn5)CC4)cc3C2=O)C(=O)N1` (centres unmarked) [JA-266, 5-((6-(4-(4-(8-(3,5-Difluoro-4-(morpholinomethyl)phenyl)quinoxalin-2-yl)-1H-pyrazol-1-yl)piperidin-1-yl)hexyl)amino)-2-(2,6-dioxopiperidin-3-yl)isoindoline-1,3-dione], the IC50 stood at 301 nM. As for `O=C1CCC(N2Cc3cc(NCCCCCC(=O)N4CCC(n5cc(-c6cnc7cccc(-c8cc(F)c(CN9CCOCC9)c(F)c8)c7n6)cn5)CC4)ccc3C2=O)C(=O)N1` (centres unmarked) [JA-273, 3-(5-((6-(4-(4-(8-(3,5-difluoro-4-(morpholinomethyl)phenyl)quinoxalin-2-yl)-1H-pyrazol-1-yl)piperidin-1-yl)-6-oxohexyl)amino)-1-oxoisoindolin-2-yl)piperidine-2,6-dione], the IC50 was found to be 66 nM.

Consider `Cc1ncsc1-c1ccc(CNC(=O)[C@@H]2C[C@@H](O)CN2C(=O)[C@@H](NC(=O)CCCCCNC(=O)CN2CCC(n3cc(-c4cnc5cccc(-c6cc(F)c(CN7CCOCC7)c(F)c6)c5n4)cn3)CC2)C(C)(C)C)cc1` [JA-164, (2S,4R)-1-((S)-2-(6-(2-(4-(4-(8-(3,5-Difluoro-4-(morpholinomethyl)phenyl)quinoxalin-2-yl)-1H-pyrazol-1-yl)piperidin-1-yl)acetamido)hexanamido)-3,3-dimethylbutanoyl)-4-hydroxy-N-(4-(4-methylthiazol-5-yl)benzyl)pyrrolidine-2-carboxamide], for which the IC50 was more than 10000 nM. In the case of `Cc1cnc(Nc2ccc(N3CCN(C(=O)CCCCCCCCC(=O)N[C@H](C(=O)N4C[C@H](O)C[C@H]4C(=O)NCc4ccc(-c5scnc5C)cc4)C(C)(C)C)CC3)cc2)nc1Nc1cccc(S(=O)(=O)NC(C)(C)C)c1` [JA-028, (2S,4R)-1-((S)-2-(10-(4-(4-((4-((3-(N-(tert-Butyl)sulfamoyl)phenyl)amino)-5-methylpyrimidin-2-yl)amino)phenyl)piperazin-1-yl)-10-oxodecanamido)-3,3-dimethylbutanoyl)-4-hydroxy-N-(4-(4-methylthiazol-5-yl)benzyl)pyrrolidine-2-carboxamide], the half-inhibitory concentration (IC50) is more than 10000 nM. Turning to `Cc1cnc(Nc2ccc(N3CCN(C(=O)CCCC(=O)N[C@H](C(=O)N4C[C@H](O)C[C@H]4C(=O)NCc4ccc(-c5scnc5C)cc4)C(C)(C)C)CC3)cc2)nc1Nc1cccc(S(=O)(=O)NC(C)(C)C)c1` [JA-023, (2S,4R)-1-((S)-2-(5-(4-(4-((4-((3-(N-(tert-Butyl)sulfamoyl)phenyl)amino)-5-methylpyrimidin-2-yl)amino)phenyl)piperazin-1-yl)-5-oxopentanamido)-3,3-dimethylbutanoyl)-4-hydroxy-N-(4-(4-methylthiazol-5-yl)benzyl)pyrrolidine-2-carboxamide], the IC50 is more than 10000 nM.

With `Cc1cnc(Nc2ccc(N3CCN(CC(=O)NCCCCNc4cccc5c4C(=O)N(C4CCC(=O)NC4=O)C5=O)CC3)cc2)nc1Nc1cccc(S(=O)(=O)NC(C)(C)C)c1` (centres unmarked) [JA-092, 2-(4-(4-((4-((3-(N-(tert-Butyl)sulfamoyl)phenyl)amino)-5-methylpyrimidin-2-yl)amino)phenyl)piperazin-1-yl)-N-(4-((2-(2,6-dioxopiperidin-3-yl)-1,3-dioxoisoindolin-4-yl)amino)butyl)acetamide], the IC50 was 2830 nM.

`O=C(CN1CCC(n2cc(-c3cnc4cccc(-c5cc(F)c(CN6CCOCC6)c(F)c5)c4n3)cn2)CC1)NCCOCCNc1ccc2c(c1)C(=O)N(C1CCC(=O)NC1=O)C2=O` (centres unmarked) [JA-169, 2-(4-(4-(8-(3,5-Difluoro-4-(morpholinomethyl)phenyl)quinoxalin-2-yl)-1H-pyrazol-1-yl)piperidin-1-yl)-N-(2-(2-((2-(2,6-dioxopiperidin-3-yl)-1,3-dioxoisoindolin-5-yl)amino)ethoxy)ethyl)acetamide]: the IC50 came out at 2030 nM. Same read-out and setting: the result for `Cc1cnc(Nc2ccc(N3CCN(C(=O)CCOCCOCCOCCC(=O)N[C@H](C(=O)N4C[C@H](O)C[C@H]4C(=O)NCc4ccc(-c5scnc5C)cc4)C(C)(C)C)CC3)cc2)nc1Nc1cccc(S(=O)(=O)NC(C)(C)C)c1` [JA-034, (2S,4R)-1-((S)-2-(tert-Butyl)-16-(4-(4-((4-((3-(N-(tert-butyl)sulfamoyl)phenyl)amino)-5-methylpyrimidin-2-yl)amino)phenyl)piperazin-1-yl)-4,16-dioxo-7,10,13-trioxa-3-azahexadecanoyl)-4-hydroxy-N-(4-(4-methylthiazol-5-yl)benzyl)pyrrolidine-2-carboxamide] reads more than 10000 nM; that for `Cc1ncsc1-c1ccc(CNC(=O)[C@@H]2C[C@@H](O)CN2C(=O)[C@@H](NC(=O)CCOCCOCCOCCC(=O)N2CCN(c3ccc(Nc4nc5cccc(-c6ccc(S(C)(=O)=O)cc6)n5n4)cc3)CC2)C(C)(C)C)cc1` [JA-068, (2S,4R)-1-((S)-2-(tert-Butyl)-16-(4-(4-((5-(4-(methylsulfonyl)phenyl)-[1,2,4]triazolo[1,5-a]pyridin-2-yl)amino)phenyl)piperazin-1-yl)-4,16-dioxo-7,10,13-trioxa-3-azahexadecanoyl)-4-hydroxy-N-(4-(4-methylthiazol-5-yl)benzyl)pyrrolidine-2-carboxamide], more than 10000 nM; that for `CS(=O)(=O)c1ccc(-c2cccc3nc(Nc4ccc(N5CCN(C(=O)CCCCCOc6ccc7c(c6)C(=O)N(C6CCC(=O)NC6=O)C7=O)CC5)cc4)nn23)cc1` (centres unmarked) [JA-255, 2-(2,6-Dioxopiperidin-3-yl)-5-((6-(4-(4-((5-(4-(methylsulfonyl)phenyl)-[1,2,4]triazolo[1,5-a]pyridin-2-yl)amino)phenyl)piperazin-1-yl)-6-oxohexyl)oxy)isoindoline-1,3-dione], 259 nM.
